Measurements as given in patent US12331032B2, “Quinone reductase 2 inhibitor compounds and uses thereof” (DUKE UNIVERSITY, priority 2018, dated 2025).

How the values were obtained:
[1] = system: mouse model of closed head injury (TBI); experiment: Rotorod vestibulomotor function after closed head injury (TBI); assay type: in vivo; conditions: mice, i.p. at 4 hours following TBI, after 5 days
Experimental: The TBI model involves a single impact designed to avoid skull fracture. Injury is produced predominantly through acceleration/deceleration forces. For this model, therapeutic compounds were delivered i.p. at 4 hours following TBI, and then once weekly thereafter for the duration of the experiment, which terminated after 28 days following assessment of spatial learning and memory. […] Mice were tested on Rotorod for 5 consecutive days post TBI, then on day 7 and day 28.

[2] = biological target: T1, quinone reductase 2 (QR2) (Homo sapiens, UniProt P16083); experiment: QR2 inhibition, comparative IC50 data; assay type: biochemical; conditions: QR2 inhibitors
T1 sequence (P16083 1-231): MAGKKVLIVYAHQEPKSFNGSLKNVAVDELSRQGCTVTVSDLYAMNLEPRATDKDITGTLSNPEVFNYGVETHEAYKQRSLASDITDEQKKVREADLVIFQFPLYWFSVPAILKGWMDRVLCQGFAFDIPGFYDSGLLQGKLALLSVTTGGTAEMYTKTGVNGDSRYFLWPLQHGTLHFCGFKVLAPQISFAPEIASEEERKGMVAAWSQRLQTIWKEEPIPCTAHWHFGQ

[3] = system: mouse model of closed head injury (TBI); experiment: Morris Water maze spatial learning and memory after TBI; assay type: in vivo; conditions: days 28-31 post-injury
Experimental: The TBI model involves a single impact designed to avoid skull fracture. Injury is produced predominantly through acceleration/deceleration forces. For this model, therapeutic compounds were delivered i.p. at 4 hours following TBI, and then once weekly thereafter for the duration of the experiment, which terminated after 28 days following assessment of spatial learning and memory. FIG. 5A-B summarize the results of spatial learning and memory assessments at 4 weeks following TBI, using the Morris Water maze to test the ability of mice to locate a submerged platform. The mice performed four trials/day for 4 consecutive days (inter-trial interval=30 min). The latency to locate the platform was recorded, and the 4 trials per day were averaged. Mice were tested on days 28-31 post-injury (n=11-12 mice per group). Standard control trials to confirm intact vision were also performed.

[4] = acidic lysomal pHs between 4 and 5.5; cited from earlier work
[5] = system: permanent MCA occlusion model; conditions: cited from earlier work

COc1ccc2c(NCc3cccnc3)ccnc2c1 [QR2I-44, 7-methoxy-4-(pyridin-3-yl) methylaminoquinoline]
improvement in Rotorod latency over CQ [1]: ~200%
improvement in Rotorod latency over vehicle [1]: ~300%
IC50 [2]: 7.51 µM
improvement in learning and memory over vehicle (Morris Water maze) [3]: 30-35%

CCN(CC)CCCC(C)Nc1ccnc2cc(Cl)ccc12 (stereo not shown) [chloroquine]
fraction doubly protonated [4]: ~100%
IC50 [2]: 70.9 µM
reduction of stroke volumes [5]: 60%
